Assay results as given in patent US20090105278A1, “Selective inhibitors of human corticosteroid syntheses” (Universitat Des Saarlandes, priority 2004, published 2009).
Where a name gives a salt, the structure may show the parent alone.

Legend:
[1] = molecular target: T1, human CYP11B2 (Homo sapiens, UniProt P19099); assay: Screening test in transgenic fission yeast (S. pombe PE1) expressing human CYP11B2; format: cell-based; parameters: expressed in transfected cells; conditions: S. pombe cells which express human CYP11B2, deoxycorticosterone substrate 100 nM, inhibitor 500 nM; for inhibition at 0.5 µM: read-out: % Inhibition human hCYP11B2
T1 sequence (P19099 25-503): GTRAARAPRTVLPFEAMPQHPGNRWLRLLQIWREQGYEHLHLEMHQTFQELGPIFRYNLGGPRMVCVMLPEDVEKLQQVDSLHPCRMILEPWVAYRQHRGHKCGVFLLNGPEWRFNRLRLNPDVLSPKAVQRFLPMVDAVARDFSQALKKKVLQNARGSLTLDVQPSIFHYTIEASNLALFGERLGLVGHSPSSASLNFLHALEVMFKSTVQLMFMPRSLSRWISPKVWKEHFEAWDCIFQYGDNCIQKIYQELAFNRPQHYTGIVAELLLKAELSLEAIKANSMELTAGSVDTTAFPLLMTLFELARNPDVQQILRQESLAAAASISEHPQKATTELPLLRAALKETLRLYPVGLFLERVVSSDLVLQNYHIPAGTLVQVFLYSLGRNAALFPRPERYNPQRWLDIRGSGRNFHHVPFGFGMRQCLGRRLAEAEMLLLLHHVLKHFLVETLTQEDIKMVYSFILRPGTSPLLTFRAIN
Summary of the method: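 Deoxycorticosterone conversion to corticosterone, 18-hydroxycorticosterone and aldosterone assessed after EtOAc extraction by HPTLC with 14C phosphorimaging. Conversion rate calculated from quantified steroid spots.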

[2] = molecular target: T2, human CYP17 (Homo sapiens, UniProt P05093); assay: Percent inhibition of CYP17 (membrane fraction of E. coli pJL17/OR); format: biochemical; conditions: E. coli which expresses human CYP17, 5 mg/ml protein, progesterone substrate 2.5 μM, inhibitor 2.5 μM; for inhibition at 2.5 µM: read-out: % Inhibition human CYP17
T2 construct: made in house; host or cells: E. coli pJL17/OR (membrane fraction)
T2 sequence (P05093 1-508): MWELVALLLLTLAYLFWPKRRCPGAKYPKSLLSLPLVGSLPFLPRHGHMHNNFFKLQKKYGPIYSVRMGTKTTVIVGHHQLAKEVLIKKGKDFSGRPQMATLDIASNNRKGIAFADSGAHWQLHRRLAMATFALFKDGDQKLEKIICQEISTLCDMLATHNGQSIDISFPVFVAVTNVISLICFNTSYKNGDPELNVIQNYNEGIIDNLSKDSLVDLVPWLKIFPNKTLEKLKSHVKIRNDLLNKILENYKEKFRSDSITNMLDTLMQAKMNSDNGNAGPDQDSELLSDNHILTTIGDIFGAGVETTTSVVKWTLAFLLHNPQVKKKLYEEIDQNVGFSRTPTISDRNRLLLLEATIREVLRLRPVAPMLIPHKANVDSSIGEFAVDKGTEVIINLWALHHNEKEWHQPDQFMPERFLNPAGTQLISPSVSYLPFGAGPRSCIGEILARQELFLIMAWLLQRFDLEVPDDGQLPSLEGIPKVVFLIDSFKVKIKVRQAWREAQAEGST
Summary of the method: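 Membranes were isolated from E. coli pJL17/OR, which coexpresses human CYP17 with rat NADPH-P450-reductase, by lysozyme treatment, sonication and centrifugation at 50,000 g, then stored at −70° C. Reactions were started with diluted membrane suspension (0.8 to 1 mg of protein per ml), incubated at 37° C for 30 min, extracted with EtOAc and analyzed by HPLC. Inhibition was calculated from reduced substrate conversion versus DMSO controls.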

Row | inhibition at 0.5 µM [1] | inhibition at 2.5 µM [2] | Compound | % Inhibition human hCYP11B2 [1] | % Inhibition human CYP17 [2]
1 | 52% | 6% | CCOc1ccc2c(c1)CC/C2=C/c1cccnc1 [Compound 19b, 3-[(Z)-(5-Ethoxy-2,3-dihydro-1H-indane-1-ylidene)methyl]pyridine Hydrochloride] |  | 
2 | 52% | 20% | COc1ccc2c(c1)CCC/C2=C\c1cccnc1 [Compound 13a, 3-[(E)-(6-Methoxy-3,4-dihydronaphthalene-1(2H)-ylidene)methyl]pyridine Hydrochloride] |  | 
3 | 76% | 5% | COc1cccc2c1/C(=C/c1cccnc1)CC2 [Compound 26a, 3-[(E)-(7-Methoxy-2,3-dihydro-1H-indane-1-ylidene)methyl]pyridine Hydrochloride] |  | 
4 | 53% | 17% | COc1ccc2c(c1)CCC/C2=C/c1cccnc1.Cl [Compound 13b, 3-[(Z)-(6-Methoxy-3,4-dihydronaphthalene-1(2H)-ylidene)methyl]pyridine Hydrochloride] |  | 
5 | 82% | 14% | C(=C1/CCc2ccccc21)/c1cccnc1 [Compound 1a, 3-[(E)-2,3-Dihydro-1H-indane-1-ylidenemethyl]pyridine Hydrochloride] |  | 
6 |  |  | 5-[(Z)-3,4-Dihydronaphth-1(2H)-ylidenemethyl]-1H-imidazolium oxalate [Compound 41b] | 82% | 13%
7 | 81% | 49% | COc1ccc2c(c1)CC/C2=C/c1cccnc1 [Compound 11b, 3-[(Z)-(5-Methoxy-2,3-dihydro-1H-indane-1-ylidene)methyl]pyridine Hydrochloride] |  | 
8 | 84% | 42% | Fc1cccc2c1CC/C2=C\c1cccnc1 [Compound 24a, 3-[(E)-(4-Fluoro-2,3-dihydro-1H-indane-1-ylidene)methyl]pyridine Hydrochloride] |  | 
